This is an account of results in patent US20240287172A1, “PROTEIN BINDERS TO IRHOM2 EPITOPES” (SCIRHOM GMBH, priority 2019, published 2024).

For this assay, the system named is PMA-induced release of endogenous HB-EGF from PBMCs from patients suffering from rheumatoid arthritis. The assay can be described thus: ELISA-based HB-EGF release assay, PMA-induced, PBMCs from RA-patients. It is filed as cell-based. The note with it: PBMC; PMA 25 ng/ml, 6 hours; chimeric antibodies (CHO) and human IgG at 1 μg/ml; Batimastat at 10 μM. The procedure: In brief, on day 1, Nunc black MaxiSorp® 96-well plates (Thermo Fisher Scientific, USA) were coated overnight with 100 μl per well of rat anti-human HB-EGF capture antibody (provided as part of the DuoSet ELISA kit) at 2 μg/ml TBS at 4° C. On day 2, the capture antibody solution was removed and MaxiSorp® plates were blocked with 300 μl per well of TBS, 1% BSA at room temperature for 3 hours. Meanwhile, 80,000 PBMC from patients suffering from rheumatoid arthritis (STEMCELL Technologies, Canada) cells in 80 μl of normal growth medium were seeded in each well of Greiner CELLSTAR V-bottom 96-well plates (Thermo Fisher Scientific, USA) and pre-incubated with 20 μl per well of standard growth medium supplemented with Batimastat (BB94, Abcam, UK) at 50 μM as positive control (for a final concentration of 10 μM in the resulting 100 μl sample volume), human IgG antibody (Thermo Fisher Scientific, USA) at 5 μg/ml as isotype control (for a final concentration of 1 μg/ml in the resulting 100 μl sample volume) or antibodies of the invention at 5 μg/ml (for a final concentration of 1 μg/ml in the resulting 100 μl sample volume) at 37° C., 5% CO2 for 30 minutes. […] Using an infinite M1000 (Tecan Group, Switzerland) microplate reader, the fluorescence of each well was collected at an excitation wavelength of 435 nm and an emission wavelength of 555 nm.

For `CNC(=O)[C@H](Cc1ccccc1)NC(=O)[C@H](CC(C)C)[C@H](CSc1cccs1)C(=O)NO` [Batimastat], the inhibition at 10 µM turned out to be 102%.
